Reference: US6908935B2, “Calcium receptor modulating agents” (Amgen Inc., priority 2002, dated 2005)

target: T1, human parathyroid cell Ca^2+ receptor (hPCaR) (Homo sapiens, UniProt P41180); experiment: [Ca2+]i measurement with fluo-3 in HEK 293 4.0-7 cells stably transfected with hPCaR; format: cell-based; conditions: fluo-3 fluorescence (485/530 nm), effect on [Ca^2+]i
T1 construct: expressed in transfected cells
T1 sequence (P41180 20-1078): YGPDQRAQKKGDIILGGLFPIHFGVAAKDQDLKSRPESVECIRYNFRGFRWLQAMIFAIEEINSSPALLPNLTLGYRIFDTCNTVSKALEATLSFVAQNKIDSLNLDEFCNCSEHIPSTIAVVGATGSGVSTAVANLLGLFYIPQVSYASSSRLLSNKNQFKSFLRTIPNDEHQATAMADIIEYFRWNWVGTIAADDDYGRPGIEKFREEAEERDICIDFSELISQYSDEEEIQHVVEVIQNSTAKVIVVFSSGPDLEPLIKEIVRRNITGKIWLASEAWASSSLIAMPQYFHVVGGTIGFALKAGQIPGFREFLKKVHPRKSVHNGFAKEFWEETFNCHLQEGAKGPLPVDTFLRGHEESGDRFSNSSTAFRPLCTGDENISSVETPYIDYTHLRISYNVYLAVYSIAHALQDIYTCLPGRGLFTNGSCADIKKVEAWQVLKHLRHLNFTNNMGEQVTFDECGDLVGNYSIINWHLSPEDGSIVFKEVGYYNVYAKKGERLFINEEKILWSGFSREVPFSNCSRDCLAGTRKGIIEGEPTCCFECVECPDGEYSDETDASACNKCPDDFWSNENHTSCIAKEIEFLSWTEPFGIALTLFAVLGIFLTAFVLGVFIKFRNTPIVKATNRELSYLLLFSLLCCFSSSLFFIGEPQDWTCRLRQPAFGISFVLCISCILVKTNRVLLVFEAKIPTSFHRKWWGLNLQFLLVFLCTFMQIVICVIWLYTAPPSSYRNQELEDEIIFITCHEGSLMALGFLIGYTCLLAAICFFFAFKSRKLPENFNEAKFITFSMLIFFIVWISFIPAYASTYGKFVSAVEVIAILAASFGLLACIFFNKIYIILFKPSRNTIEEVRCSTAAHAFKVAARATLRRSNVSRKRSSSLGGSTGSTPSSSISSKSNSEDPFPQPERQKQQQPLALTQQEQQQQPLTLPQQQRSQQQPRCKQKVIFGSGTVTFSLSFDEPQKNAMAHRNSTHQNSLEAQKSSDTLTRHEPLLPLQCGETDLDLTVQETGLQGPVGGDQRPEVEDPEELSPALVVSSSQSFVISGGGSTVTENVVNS
Summary of the method: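 Cytosolic [Ca2+] was read as fluo-3 fluorescence (ex 485/em 530 nm) after compound addition to washed cells. Cells were hPCaR-transfected HEK 293 clone 7, dye-loaded 30 min at 37 °C with 2 μM fluo-3 acetoxymethyl ester in HEPES-buffered saline pH 7.45 containing 1 mM CaCl2 and 0.5% BSA.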

EC50, ≤ 10 µM:
COc1ccc(CN[C@H](C)c2ccccc2)cc1-c1coc(C)n1 [(1R)-N-((3-(2-methyl-1,3-oxazol-4-yl)-4-(methyloxy)phenyl)methyl)-1-phenylethanamine]
COc1ccc(CN[C@H](C)c2ccccc2)cc1-c1ccc(OCC(F)(F)F)nc1 [(1R)-N-((4-(methyloxy)-3-(6-((2,2,2-trifluoroethyl)oxy)-3-pyridinyl)phenyl)methyl)-1-phenylethanamine]
COc1cccc([C@@H](C)NCc2ccc(OC(F)F)c(-c3cccnc3)c2)c1 [(1R)-N-((4-((difluoromethyl)oxy)-3-(3-pyridinyl)phenyl)methyl)-1-(3-(methyloxy)phenyl)ethanamine]
C[C@@H](NCc1cccc(-c2nccs2)c1)c1cccc2ccccc12 [Example 217, (1R)-1-(1-naphthalenyl)-N-((3-(1,3-thiazol-2-yl)phenyl)methyl)ethanamine]
COc1ccc(-c2cc(CN[C@H](C)c3cccc4ccccc34)ccc2OC)nc1 [(1R)-N-((4-(methyloxy)-3-(5-(methyloxy)-2-pyridinyl)phenyl)methyl)-1-(1-naphthalenyl)ethanamine]
COc1cccc([C@@H](C)NCc2ccc(OC)c(-c3ccc4ccccc4c3)c2)c1 [(1R)-N-((4-(methyloxy)-3-(2-naphthalenyl)phenyl)methyl)-1-(3-(methyloxy)phenyl)ethanamine]
COc1cccc([C@@H](C)NCc2ccc(OC)c(-c3ccc4c(c3)ncn4C)c2)c1 [(1R)-N-((3-(1-methyl-1H-benzimidazol-5-yl)-4-(methyloxy)phenyl)methyl)-1-(3-(methyloxy)phenyl)ethanamine]
COc1cccc([C@@H](C)NCc2ccc(OC)c(-c3ccc(C(F)(F)F)nc3)c2)c1 [(1R)-1-(3-(methyloxy)phenyl)-N-((4-(methyloxy)-3-(6-(trifluoromethyl)-3-pyridinyl)phenyl)methyl)ethanamine]
COc1ccc(CN[C@H](C)c2cccc3ccccc23)cc1-c1csc2ccccc12 [(1R)-N-((3-(1-benzothien-3-yl)-4-(methyloxy)phenyl)methyl)-1-(1-naphthalenyl)ethanamine]
C[C@@H](NCc1cccc(-c2cncc(C(N)=O)c2)c1)c1ccc2ccccc2c1 [Example 461, 5-(3-((((1R)-1-(2-naphthalenyl)ethyl)amino)methyl)phenyl)-3-pyridinecarboxamide]
CCOC(=O)c1ccc(-c2cc(CN[C@H](C)c3cccc(OC)c3)ccc2OC)cc1 [ethyl 2′-(methyloxy)-5′-((((1R)-1-(3-(methyloxy)phenyl)ethyl)amino)methyl)-1,1′-biphenyl-4-carboxylate]
Cc1noc(-c2cccc(CN[C@H](C)c3ccccc3)c2)n1 [Example 453, (1R)-N-((3-(3-methyl-1,2,4-oxadiazol-5-yl)phenyl)methyl)-1-phenylethanamine]
COc1cccc([C@@H](C)NCc2ccc(OC)c(-c3ccc4oc(C)nc4c3)c2)c1
COc1ccc(CN[C@H](C)c2cccc3ccccc23)cc1-c1ccc2c(ccn2CC(F)(F)F)c1 [(1R)-N-((4-(methyloxy)-3-(1-(2,2,2-trifluoroethyl)-1H-indol-5-yl)phenyl)methyl)-1-(1-naphthalenyl)ethanamine]
Cc1ccc(-c2cccc(CN[C@H](C)c3ccc4ccccc4c3)c2)cn1 [(1R)-N-((3-(6-methyl-3-pyridinyl)phenyl)methyl)-1-(2-naphthalenyl)ethanamine]
COc1ccc(CN[C@H](C)c2ccc(C)cc2)cc1-c1nccs1 [(1R)-N-((4-(methyloxy)-3-(1,3-thiazol-2-yl)phenyl)methyl)-1-(4-methylphenyl)ethanamine]
COc1cccc([C@@H](C)NCc2ccc(OC)c(-c3ccc(C(=O)N(C)C)cc3)c2)c1 [N,N-dimethyl-2′-(methyloxy)-5′-((((1R)-1-(3-(methyloxy)phenyl)ethyl)amino)methyl)-1,1′-biphenyl-4-carboxamide]
COc1ccc(CN[C@H](C)c2ccccc2)cc1-c1cccc(C#N)c1 [2′-(methyloxy)-5′-((((1R)-1-phenylethyl)amino)methyl)-1,1′-biphenyl-3-carbonitrile]
COc1ccc(CN[C@H](C)c2ccccc2)cc1-c1cnccn1 [Example 238, (1R)-N-((4-(methyloxy)-3-(2-pyrazinyl)phenyl)methyl)-1-phenylethanamine]
COc1ccc(CN[C@H](C)c2ccccc2)cc1-c1ccoc1 [(1R)-N-((3-(3-furanyl)-4-(methyloxy)phenyl)methyl)-1-phenylethanamine]
COc1cccc([C@@H](C)NCc2ccc(OC)c(-c3ccc4ncccc4c3)c2)c1 [(1R)-1-(3-(methyloxy)phenyl)-N-((4-(methyloxy)-3-(6-quinolinyl)phenyl)methyl)ethanamine]
COc1cccc([C@@H](C)NCc2ccc(OC)c(-c3ccc4c(c3)CCO4)c2)c1 [(1R)-N-((3-(2,3-dihydro-1-benzofuran-5-yl)-4-(methyloxy)phenyl)methyl)-1-(3-(methyloxy)phenyl)ethanamine]
COCCOc1ccc(CN[C@H](C)c2cccc(OC)c2)cc1-c1ccc(C(F)(F)F)cc1 [(1R)-N-((6-((2-(methyloxy)ethyl)oxy)-4′-(trifluoromethyl)-1,1′-biphenyl-3-yl)methyl)-1-(3-(methyloxy)phenyl)ethanamine]
